Experiments:
[1] = test system: alanine aminotransferase (ALT); experiment: MCD diet induced NASH in mice, ALT activity in serum; format: in vivo, FVB/NJ mice; details: CBD 50 mg/kg, Spilanthol 10 mg/kg, gavage daily for 21 days, MCD elevation 515 SFU/ml
Excerpt: (§1) MCD diet in mice is considered a common gold standard model for the development of NASH. In this model, the absence of methionine leads to hepatic injury, inflammation, and fibrosis, and the deficiency of choline leads to macrovesicular steatosis. The MCD diet mouse model has been used in several studies to induce NASH with or without fibrosis.
NASH was induced in 12 weeks old Male FVB/NJ mice fed with the MCD diet for 21 days. Mice were divided into 5 study groups (12 mice in each group): • 1. Healthy animal group—No induction of NASH by MCD diet. • 2. MCD diet group—with no treatment by either CBD or Spilanthol. • 3. CBD alone group—MCD diet+daily CBD 50 mg/kg treatment. • 4. Spilanthol alone group—MCD diet+daily Spilanthol 10 mg/kg treatment. • 5. […]
(§2) Treatment was given via gavage daily for 21 days. […] Body weight was monitored every other day. At the end of day 21 the animals were sacrificed, and study readouts as described below were measured.
(§3) The following readouts were measured in the study as indicators for the therapeutic efficacy of the different treatments: • 1. […] Study Readouts
1. Liver enzyme activity levels in serum: The average level of alanine aminotransferase (ALT) activity in the serum of the mice in the different treatment groups was measured using a biochemical autoanalyzer following 21 days of the. […]

[2] = test system: aspartate aminotransferase (AST); experiment: MCD diet induced NASH in mice, AST activity in serum; format: in vivo, FVB/NJ mice; details: CBD 50 mg/kg, Spilanthol 10 mg/kg, gavage daily for 21 days
Excerpt: as §1
(§4) NASH was induced in 12 weeks old Male FVB/NJ mice fed with the MCD diet for 21 days. Mice were divided into 5 study groups (12 mice in each group): • 1. Healthy animal group—No induction of NASH by MCD diet. • 2. MCD diet group—with no treatment by either CBD or Spilanthol. • 3. CBD alone group—MCD diet+daily CBD 50 mg/kg treatment. • 4. Spilanthol alone group—MCD diet+daily Spilanthol 10 mg/kg treatment. • 5. Combination treatment group—MCD diet+daily CBD 50 mg/kg and Spilanthol 10 mg/kg treatment.
Treatment was given via gavage daily for 21 days. That is, the MCD diet and treatment were initiated simultaneously, so as to examine the treatments' ability both to prevent and treat NASH. Body weight was monitored every other day. At the end of day 21 the animals were sacrificed, and study readouts as described below were measured.
The following readouts were measured in the study as indicators for the therapeutic efficacy of the different treatments: • 1. 1. Liver enzymes activity levels in the serum (ALT and AST). • 2. 2. […] Study Readouts […]

[3] = test system: NASH induced by a methionine and choline deficient (MCD) diet; experiment: MCD diet induced NASH in mice, liver weight; format: in vivo, FVB/NJ mice; details: same doses, 21 days
Excerpt: as §1, §4, §2, §3
3. […] The total liver weight was also measured for all mice following the 21 days of the study. […] The average liver weight as measured in the not dieted mice group (healthy) was 1.22 grams. […]

[4] = test system: Dextran Sodium Sulphate (DSS) induced colitis; experiment: DSS induced colitis in mice, total length of colon from cecum to anus; format: in vivo, C57BL/6 mice; details: for average colon length: CBD 50 mg/kg, Spilanthol 10 mg/kg, gavage daily 8 days, day 9, healthy 7.66, vehicle 4.9 cm; for decrease of colon length from baseline (healthy mice): vehicle 36% decrease
Experimental: (§5) Colitis was induced in 10 weeks old female C57BL/6 mice (Harlan laboratories, Israel) by feeding them for 8 days with 1.5% (w/vol) DSS in the drinking water (Peer et al. Science, 319: 627-630, 2008; Dearling et al. IBD 2010; Dearling et al. IBD 2016), Kedmi et al. Nature Nanotechnology, 2018.
(§6) Mice were divided into 4 study groups (10 mice in each group): 1. Vehicle treatment group; 2. CBD 50 mg/kg treatment group; 3. Spilanthol 10 mg/kg treatment group; and 4. CBD 50 mg/kg+Spilanthol 10 mg/kg combination treatment group (herein “test combination group”). Treatment was given via gavage daily for 8 days. An additional group of 10 healthy mice served as a […] control arm. Body weight was monitored every other day. At the end of day 9 the animals were sacrificed and colon TNFα levels as well as the total length of the length of colon from the cecum to anus were assayed.
(§7) The following readouts were measured in the study as indicators for assessing the amelioration and the therapeutic efficacy of the different treatments: 1. Changes in body weight, 2. Colon's TNFα levels as measured by ELISA kits (R&D Systems, USA), 3. Total length of colon from cecum to anus, as measured by a blinded veterinary doctor.

[5] = test system: TNFα; experiment: DSS induced colitis in mice, colon TNFα levels by ELISA; format: in vivo, C57BL/6 mice; details: for average colon TNFα level: CBD 50 mg/kg, Spilanthol 10 mg/kg, gavage daily 8 days, day 9, healthy 486, vehicle 1,116 pg/ml; for reduction in the TNFα increase effect / reduction of colon TNFα level comparing to vehicle / increase of colon TNFα level from baseline (healthy mice): same doses; for reduction in the TNFα increase effect / reduction of colon TNFα level comparing to vehicle: day 9; for increase of colon TNFα level from baseline (healthy mice): vehicle 130% increase
Experimental: as §5, §6, §7

[6] = test system: IL-6; experiment: MCD diet induced NASH in mice, IL-6 serum levels by ELISA; format: in vivo, FVB/NJ mice; details: same doses, 21 days, healthy 88, untreated dieted 2,912 pg/ml
Excerpt: as §1, §4, §2, §3
2. […] Pro-inflammatory cytokine IL-6 levels were also measured in the serum of the mice at the end of the 21 days of the study using a commercial ELISA kit (R&D systems, USA). […]

[7] = test system: Dextran Sodium Sulphate (DSS) induced colitis; experiment: DSS induced colitis in mice, changes in body weight; format: in vivo, C57BL/6 mice; details: CBD 50 mg/kg, Spilanthol 10 mg/kg, gavage daily for 8 days; for prevention of the weight loss effect (improvement in outcome vs vehicle): day 9; for average loss of baseline body weight: measured on day 9, vehicle 14.6%
Experimental: as §5, §6, §7

[8] = test system: nitric oxide (NO) production; details: RAW 264.7 murine macrophages; cited from earlier work
[9] = test system: RAW 264.7 murine macrophages; details: concentrations up to 40 μg/ml; cited from earlier work
[10] = test system: Ames test; details: cited from earlier work
[11] = test system: human HEK293 kidney cells; details: cited from earlier work
[12] = test system: ICR mice; details: acute toxicity; cited from earlier work

| Compound | reduction of the elevated ALT serum activity levels [1] | reduction in AST enzyme activity levels in serum [2] | reduction in liver weight loss [3] | average colon length [4] [cm] | decrease of colon length from baseline (healthy mice) ([4]; same doses) [%] | improvement in outcome (colon shortening effect) ([4]; same doses, vs vehicle) [%] | reduction of the colon shortening effect ([4]; same doses, vs vehicle) [cm] | average colon TNFα level [5] [pg/mL] | reduction in the TNFα increase effect [5] [%] | reduction of colon TNFα level comparing to vehicle [5] [pg/mL] | increase of colon TNFα level from baseline (healthy mice) [5] [%] | reduction of the elevated IL-6 serum levels [6] | prevention of the weight loss effect (improvement in outcome vs vehicle) [7] [%] | average loss of baseline body weight [7] [%] | effect on nitric oxide (NO) production [8] | cytotoxic effects [9] | mutagenic effects ([10]; Ames test) | antimutagenic effects ([10]; at 25 and 50 μg/ml) | cytotoxic effect, mean inhibitory concentration (IC50) [11] [µg/mL] | median lethal dose (LD50) [12] [mg/kg] |
| --- | --- | --- | --- | --- | --- | --- | --- | --- | --- | --- | --- | --- | --- | --- | --- | --- | --- | --- | --- | --- |
| C=C(C)C1CCC(C)=CC1c1c(O)cc(CCCCC)cc1O (stereo not drawn) [CBD, 2-[3-methyl-6-(1-methylethenyl)-2-cyclohexen-1-yl]-5-pentyl-1,3-benzenediol] | 16.5% | neither CBD alone, nor Spilanthol alone has any significant effect | 38.3% | 5.31 | 30.7 | 14.9 | 0.41 | 928 | 30 | 188 | 91 | 13.5% | 44 | 8.2 | – | – | – | – | – | – |
| C/C=C/C=C\CC/C=C/C(=O)NCC(C)C [Spilanthol, (2E,6Z,8E)-N-isobutyl-2,6,8-decatrienamide] | no effect | neither CBD alone, nor Spilanthol alone has any significant effect | no effect | 4.9 | 36 | 0 | – | 980 | 21.5 | 136 | 101 | ineffective | 0 | 14.6 | stimulatory effect | No cytotoxic effects | No mutagenic effects | antimutagenic effects of affinin were observed | 260 | 113 |
